Assay results as given in patent US11642391B2, “Compositions containing a pharmacophore with selectivity to diseased tissue and methods of making same” (Vascular BioSciences, priority 2014, dated 2023).

What was measured:
[1] = test system: diseased kidney (anti-glomerular basement membrane antibody induced glomerular injury); test: CAR pharmacophore targeting in rat model of crescentic glomerular nephritis; assay type: in vivo; conditions: i.v. 3.3 mg/kg B.W., 14 days after induction, kidneys harvested three hours after injection
Method: A rat model of crescentic glomerular nephritis (anti-glomerular basement membrane antibody induced glomerular injury) was used to observe the utility of CAR pharmacophore targeting in chronic kidney disease. Glomerulonephritis was induced in rat kidneys by i.v. injection of anti-glomerular basement membrane antibodies. 14 days after induction, CAR pharmacophore peptide or control ([…] SEQ ID NO: 34) peptide was i.v. injected at 3.3 mg/kg B.W. Kidneys were harvested three hours after CAR pharmacophore or control injection and Masson's trichrome (collagen) staining and fibronectin immunostaining were used to determine development of kidney disease and fibrosis formation.

[2] = test system: monocrotaline-induced PAH; test: Monocrotaline-induced (MCT) PAH rat model, co-administration with imatinib; assay type: in vivo, Sprague-Dawley rats; conditions: prolonged intravenous administration of imatinib alone
Method: CAR pharmacophore co-administration with imatinib in a rat model of monocrotaline-induced (MCT) PAH was used to observe the therapeutic utility of CAR for targeting PAH. CAR pharmacophore peptide was intravenously co-administered with 10 mg/kg or 50 mg/kg imatinib for 14 days starting 4 weeks post MCT induction.
PAH was induced in male Sprague-Dawley rats (300-330 g, 10 weeks old, Harlan) with a single intraperitoneal dose of monocrotaline (60 mg/kg). Treatment was initiated four weeks after PAH induction with either imatinib (50 mg/kg or 10 mg/kg) or imatinib (50 mg/kg or 10 mg/kg)+CAR pharmacophore combination (3 mg/kg) for 2 weeks with daily i.v. (FIGS. 22 and 23) or daily sublingual administration.

[3] = test system: LPS-induced sepsis; test: Survival in LPS mouse model of sepsis; assay type: in vivo, mice
Method: Fifty-percent of all mice with LPS-induced sepsis that are left untreated are dead within 48 hours. When these LPS mice are treated with clinically relevant doses of the common and experimental sepsis drugs hydrocortisone, antithrombin III or sivelestat, survival ranged from 40-56%, similar to current clinical outcomes. In contrast, when LPS mice were co-administered CAR at the same time as hydrocortisone, antithrombin III or sivelestat, experimental sepsis survival improved to 83-89%.
Injection of the bacterial protein, lipopolysaccharide (LPS), was used to induce sepsis in mice. Doses were given at 3, 6, 9, and 12 hours to match the clinical use of sivelestat. Survival was measured up to 48 hours after LPS injection. At 48 hours, the survival rate of CAR pharmacophore+sivelestat treated animals was 89% compared to 50% in both control and sivelestat only groups, representing a 78% increase in survival of animals treated with CAR pharmacophore (FIG. 12).
Sepsis was initiated and survival measured with doses given at 3 and 24 hours to match the clinical use of ATIII. […]
CAR pharmacophore dramatically improves survival in septic mice treated with hydrocortisone steroid. Sepsis was initiated and survival measured with doses given at 3 and 24 hours to match the clinical use of hydrocortisone. […]

[4] = test system: sepsis; conditions: cited from earlier work
[5] = test system: lung, liver and kidney endothelium of septic animals; test: Scanning electron micrograph of lung, liver and kidney tissue in LPS sepsis; assay type: in vivo, mice
[6] = test system: CHO cells; conditions: prior experiments; linear truncated peptides; cited from earlier work
[7] = test system: MDA-MB-231 cells; test: Triple negative breast cancer model in athymic nude mice; assay type: in vivo; conditions: after 32 days; 3 mg/kg i.v. every other day, 15 doses
Method: In female athymic nude mice (CRL: NU(NCr)—Foxn1nu, 11 weeks old, Charles River), triple negative breast cancer tumors were initiated via subcutaneous injection of 5×10^6 MDA-MB-231 cells into the right flank. Tumor growth was monitored until the average tumor size approached 100-150 mm3. […] Animals were dosed intravenously every other day for a total of 15 doses. Tumor volume was measured using calipers twice per week and animals weighed daily on days 1-5 and then on a twice weekly schedule.

[8] = meta-analysis of 8 trials (Iwata et al., 2010)

For CGGGGGGGC [control peptide], the “accumulation in the diseased kidney” value [1] was “largely cleared from the kidney”.

For Cc1ccc(NC(=O)c2ccc(CN3CCN(C)CC3)cc2)cc1Nc1nccc(-c2cccnc2)n1 [imatinib], the effect on bodyweight [2] was “significant adverse effect on bodyweight”.

For C[C@]12CCC(=O)C=C1CC[C@@H]1[C@@H]2[C@@H](O)C[C@@]2(C)[C@H]1CC[C@]2(O)C(=O)CO [hydrocortisone], the survival rate ([3]; 48 hours, hydrocortisone only, doses at 3 and 24 hours) is given as 56%, the super infection ([4]; low-dose hydrocortisone therapy, septic shock) is given as “more episodes of super infection” and the “survival in patients with septic shock” value ([4]; low-dose hydrocortisone therapy) is given as “did not improve survival”.

For CC(C)(C)C(=O)Oc1ccc(S(=O)(=O)Nc2ccccc2C(=O)NCC(=O)O)cc1 [sivelestat], the survival rate ([3]; 48 hours after LPS injection, doses at 3, 6, 9, and 12 hours) is listed as 50%, the 180 day mortality [4, 8] is listed as “possibly increased” and the mechanical ventilation days [4, 8] is listed as “no difference”. The “mortality rate within 28-30 days after randomization” value [4, 8] was “no difference”, the “pulmonary arteriole endothelium degradation (SEM, lung)” value [5] was “did not prevent degradation of the continuous pulmonary arteriole endothelium” and the “sieve plates (SEM, liver)” value [5] was “not able to prevent defenestration of sieve plates”. The “tissue damage (SEM, kidney)” value [5] was “did not prevent gross tissue damage”.

In the case of CARSKNK [SEQ ID NO: 24], the “cell binding and tissue homing” value [6] is given as “highly active”.

With CC(=O)O[C@H]1C(=O)[C@@]2(C)[C@H]([C@H](OC(=O)c3ccccc3)[C@]3(O)C[C@H](OC(=O)[C@H](O)[C@@H](NC(=O)c4ccccc4)c4ccccc4)C(C)=C1C3(C)C)[C@]1(OC(C)=O)CO[C@@H]1C[C@@H]2O [paclitaxel] the “bodyweight gain relative to average starting bodyweight” value [7] was 5%.
